One compound from PMC6672008, “Small molecule degraders of the hepatitis C virus protease reduce susceptibility to resistance mutations” (Nature Communications, 2019) can be followed below.

Several values for one entry are separate records, joined by “and”; a condition that tells them apart may be missing. Equal values may be shown once. Read-outs that look alike come from different tables or passages of the source.

One data set has as its system wildtype HCV-Jc1. The data set can be described thus: microbe, parasite or virus in culture. It counts as cell-based, hepatitis C virus.
A further data set has as its system Huh7.5-SGR cells. The data set can be described thus: Cytotoxicity assay (CellTiter-Glo, 24 h). It counts as cell-based. Conditions: read-out: CC50 (50% loss of viability), single experiments, individual experiments.
Data set [1] in a line: Cytotoxicity assay (CellTiter-Glo, 24 h). The format is cell-based. Conditions: human, CC50 (50% loss of viability).
The test system of another data set is HCV-JFH1-ad. In words: microbe, parasite or virus in culture. The format is cell-based, hepatitis C virus.
A further data set relates to HCV-NS3-A156S. In words: microbe, parasite or virus in culture. The format is cell-based, hepatitis C virus.
For the next data set, the system named is HCV-NS3-V55A. In words: microbe, parasite or virus in culture. It counts as cell-based, hepatitis C virus.

For the compound `CCC[C@H](NC(=O)[C@@H]1[C@H]2CCC[C@H]2CN1C(=O)[C@@H](NC(=O)[C@@H](NC(=O)c1cnccn1)C1CCCCC1)C(C)(C)C)C(=O)C(=O)NC1CC1` [telaprevir, reference compound], the half-maximal inhibitory concentration (IC50) is 98 nM with wildtype HCV-Jc1 (Hepatitis C virus, Huh7.5, read-out: antiviral IC50, wildtype virus, average value reported, Huh7.5, MOI 0.1, treated 24 to 48 h post-infection); 110 nM with wildtype HCV-Jc1 (Hepatitis C virus, Huh7.5, read-out: antiviral IC50, wildtype virus, single experiments, Huh7.5, MOI 0.1, treated 24 to 48 h post-infection); 72 nM and 111 nM with wildtype HCV-Jc1 (read-out: antiviral IC50, wildtype virus, single experiments, Huh7.5, MOI 0.1, treated 24 to 48 h post-infection); 132 nM in the data set with HCV-JFH1-ad (Hepatitis C virus, Huh7.5, read-out: antiviral IC50 (50% reduction in viral titers), average value reported, Huh7.5, MOI 0.1, treated 24 to 48 h post-infection, average of n ≥ 2 experiments); 114 nM and 91 nM and 86 nM and 236 nM with HCV-JFH1-ad (read-out: antiviral IC50 (50% reduction in viral titers), single experiments, Huh7.5, MOI 0.1, treated 24 to 48 h post-infection, individual experiments); 949 nM with HCV-NS3-A156S (Hepatitis C virus, Huh7.5, read-out: antiviral IC50, NS3-A156S virus, average value reported, Huh7.5, MOI 0.1, treated 24 to 48 h post-infection). Besides, the IC50 in the data set with HCV-NS3-A156S (Hepatitis C virus, Huh7.5, read-out: antiviral IC50, NS3-A156S virus, single experiments, Huh7.5, MOI 0.1, treated 24 to 48 h post-infection) was 756 nM; with HCV-NS3-A156S (read-out: antiviral IC50, NS3-A156S virus, single experiments, Huh7.5, MOI 0.1, treated 24 to 48 h post-infection) it was 1140 nM; in the data set on HCV-NS3-V55A (Hepatitis C virus, Huh7.5, read-out: antiviral IC50, NS3-V55A virus, average value reported, Huh7.5, MOI 0.1, treated 24 to 48 h post-infection), 288 nM; in the data set on HCV-NS3-V55A (Hepatitis C virus, Huh7.5, read-out: antiviral IC50, NS3-V55A virus, single experiments, Huh7.5, MOI 0.1, treated 24 to 48 h post-infection) it was 190 nM; in the data set on HCV-NS3-V55A (read-out: antiviral IC50, NS3-V55A virus, single experiments, Huh7.5, MOI 0.1, treated 24 to 48 h post-infection), 304 nM and 372 nM. Moreover, in the data set with Huh7.5-SGR cells, the 50% cytotoxic concentration (CC50) is > 40000 nM and 24000 nM. Moreover, the CC50 at 24 h in data set [1] (average value reported, averaged from n = 2) was found to be 28000 nM; in data set [1] (single experiments, individual experiments), 32000 nM. Moreover, the “change in antiviral potency, NS3-A156S vs wildtype” value in the data set with HCV-NS3-A156S (ratio of IC50 values) came to 10 fold. The “change in antiviral potency, NS3-V55A vs wildtype” value in the data set with HCV-NS3-V55A (ratio of IC50 values) was found to be 3 fold.
